The record followed here is patent US7544675B2, “Chemical compounds with dual activity, processes for their preparation and pharmaceutical compositions” (UCB, S.A., priority 2002, dated 2009).

SMILES strings stand for the structures.

One assay deals with PDE IV. The experiment in a line: PDE IV enzymatic activity (SPA phosphodiesterase assay, cytosolic fraction from U937 cells). It counts as biochemical. As to conditions: qualitative statement. As to the method: Cytosolic fraction from U937 cells pre-stimulated for 4 h at 37° C. with a mixture of rolipram 30 μM and salbutamol 1 μM (Torphy T. J., Zhou H. L., Cieslinski L. B., J. Pharmacol. Exp. Ther. (1992), 263 (3), 1195-1205).
Assays were performed in 100 μL of 50 mM Tris HCl buffer (pH 7.4) containing 5 mM MgCl2, 2 mM EGTA, 20 nM of [^3H]-cAMP (40-60 Ci/mmol), the cytosolic fraction of 50,000 U937 cells and the appropriate concentration of test compound (usually 10 μM) dissolved in DMSO (final assay concentration not exceeding 1%). After 30 min incubation at room temperature, 0.5 mg of SPA yttrium silicate beads are added to each sample. Radioactivity bound to the beads (5′-AMP) is determined by liquid scintillation. Non PDE IV activity and/or non specific binding of the labeled substrate to the SPA beads is defined as the residual radioactivity remaining in the presence of rolipram 32 μM (non PDE IV activity represents about 40% of total activity). PDE IV activity is determined by subtracting the non PDE TV activity from the total activity.

Assay [1] addresses T1, human m3 muscarinic receptor (Homo sapiens, UniProt P20309).
T1 construct: expressed in transfected cells; host or cells: CHO (Chinese Hamster Ovarian) cells, crude membrane fraction
Description: Affinity for human muscarinic receptors ([3H]-NMS binding, CHO cell membranes). As to conditions: qualitative statement. As to the method: Chinese Hamster Ovarian cells (CHO) expressing the human recombinant m1, m2, m3, m4 and m5 receptors were cultured in Ham's F12 media supplemented with 100 IU/ml of penicillin, 100 μg/ml of streptomycin, 400 μg/ml of geneticin and 5% of fetal bovine serum. Cell cultures were maintained in a humidified incubator at 37° C. and 5% CO2.
Confluent CHO cells expressing human m1, m2, m3, m4 and m5 muscarinic receptors were harvested and resuspended in phosphate buffered saline without calcium and magnesium. The cell suspension was centrifuged at 1500×g for 3 min (4° C.). The cell pellet was homogenized in a 15 mM Tris-HCl (pH 7.5) buffer containing 2 mM MgCl2, 0.3 mM EDTA and 1 mM EGTA. The crude membrane fraction was collected by two consecutive centrifugation steps at 40,000×g for 25 min (4° C.). The final pellet was resuspended, at a protein concentration ranging from 2 to 6 mg/ml, in a 7.5 mM Tris-HCl (pH 7.5) buffer containing 12.5 mM MgCl2, 0.3 mM EDTA, 1 mM EGTA and 250 mM sucrose and stored in liquid nitrogen.
Binding assays were performed according to procedure described in: Buckley N. J., Bonner T. I., Buckley C. M., Brann M. R., Mol. Pharmacol. (1989), 35, 469-476, but with slight modifications.
Briefly, 25 to 50 μg of membrane proteins were incubated at room temperature in 1 ml of a 50 mM Tris-HCl (pH 7.4) buffer containing 2 mM of MgCl2, 0.1 nM of [^3H]-NMS (N-methylscopolamine, 85 Ci/mmol, from Apbiotech, UK) and increasing concentrations of test compound dissolved in DMSO (1% final concentration). Non specific binding was measured in the presence of 1 μM atropine. After 60 (m2) or 120 (m3) min. incubation, assays were stopped by rapid vacuum filtration of the samples through glass fiber filters (Filtermat A, Wallac, Belgium) presoaked in 0.3% polyethyleneimine for at least 2 h. Samples were further rinsed with 8 ml of ice-cold 50 mM Tris-HCl (pH 7.4) buffer. Radioactivity trapped onto the filter was counted in a Betaplate counter (Wallac). Competition binding curves were analyzed by non-linear regression with XLfit software (UDBS, UK).

T1 sequence (P20309 whole entry): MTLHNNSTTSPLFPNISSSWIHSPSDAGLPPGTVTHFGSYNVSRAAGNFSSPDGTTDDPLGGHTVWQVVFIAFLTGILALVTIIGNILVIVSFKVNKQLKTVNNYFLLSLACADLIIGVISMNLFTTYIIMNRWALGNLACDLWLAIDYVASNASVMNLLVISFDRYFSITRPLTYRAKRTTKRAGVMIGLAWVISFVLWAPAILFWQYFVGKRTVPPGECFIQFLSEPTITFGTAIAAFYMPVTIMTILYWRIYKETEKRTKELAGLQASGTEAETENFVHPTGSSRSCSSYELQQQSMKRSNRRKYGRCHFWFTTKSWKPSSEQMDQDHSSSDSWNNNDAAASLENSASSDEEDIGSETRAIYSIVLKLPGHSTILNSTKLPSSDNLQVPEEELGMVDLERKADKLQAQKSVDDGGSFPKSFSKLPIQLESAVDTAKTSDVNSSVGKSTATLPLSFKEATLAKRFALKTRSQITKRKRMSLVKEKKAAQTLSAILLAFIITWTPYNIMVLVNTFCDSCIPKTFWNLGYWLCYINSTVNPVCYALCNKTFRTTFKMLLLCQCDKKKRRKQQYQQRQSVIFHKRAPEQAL

In the case of `Cc1c(NCc2c(F)cccc2F)nc(C2CC2)nc1NC1CC1` [Compound 132, N^4,2-dicyclopropyl-N^6-(2,6-difluorobenzyl)-5-methyl-4,6-pyrimidinediamine], the “Dual high affinities: PDE IV part” value in the assay with PDE IV is reported as “high affinities”. The “Dual high affinities: m3 receptor part” value in assay [1] was “high affinities”.

Regarding `Cc1c(NC2CCC(C)CC2)nc(C2CC2)nc1NC1CC1` (stereo not shown) [Compound 145, N^4,2-dicyclopropyl-5-methyl-N^6-(4-methylcyclohexyl)-4,6-pyrimidinediamine], in the assay on PDE IV, the “Dual high affinities: PDE IV part” value is “high affinities”. In assay [1], the “Dual high affinities: m3 receptor part” value is “high affinities”.

Regarding `Cc1c(NC2CC2)nc(C2CCCC2)nc1N1CCCCCC1` [Compound 154, 6-(1-azepanyl)-2-cyclopentyl-N-cyclopropyl-5-methyl-4-pyrimidinamine], the “Dual high affinities: PDE IV part” value in the assay with PDE IV is reported as “high affinities”. Moreover, the “Dual high affinities: m3 receptor part” value in assay [1] is recorded as “high affinities”.

Consider `C1CCCN(c2nc(C3CC3)nc3c2CCCN3)CC1` [Compound 155, 4-azepan-1-yl-2-cyclopropyl-5,6,7,8-tetrahydro-pyrido[2,3-d]pyrimidine], for which the “Dual high affinities: PDE IV part” value in the assay on PDE IV is reported as “high affinities”. In addition, the “Dual high affinities: m3 receptor part” value in assay [1] was “high affinities”.

On to `C1CCCN(c2nc(C3CC3)nc3c2CCCCN3)CC1` [Compound 156, 4-azepan-1-yl-2-cyclopropyl-6,7,8,9-tetrahydro-pyrimido[4,5-b]azepine], for which the “Dual high affinities: PDE IV part” value in the assay with PDE IV was “high affinities”. Besides, the “Dual high affinities: m3 receptor part” value in assay [1] was “high affinities”.

`Cc1c(NC2CC2)nc(C2CC2)nc1N1CCCCC1` [Compound 175, N,2-dicyclopropyl-5-methyl-6-(1-piperidinyl)-4-pyrimidinamine]: the “Dual high affinities: PDE IV part” value with PDE IV is “high affinities”. The “Dual high affinities: m3 receptor part” value in assay [1] is “high affinities”.

For `Cc1c(NC2CC2)nc(C2CC2)nc1N1CC2CCC(CC2)C1` [Compound 176, 6-(3-azabicyclo[3.2.2]non-3-yl)-N,2-dicyclopropyl-5-methyl-4-pyrimidinamine], in the assay with PDE IV, the “Dual high affinities: PDE IV part” value was “high affinities”. Besides, the “Dual high affinities: m3 receptor part” value in assay [1] was “high affinities”.

Consider `Cc1c(NC2CC2)nc(C2CC2)nc1N1CCCC1` [Compound 180, N,2-dicyclopropyl-5-methyl-6-(1-pyrrolidinyl)-4-pyrimidinamine], for which the “Dual high affinities: PDE IV part” value in the assay on PDE IV is listed as “high affinities”. For the same molecule, the “Dual high affinities: m3 receptor part” value in assay [1] is listed as “high affinities”.

Turning to `Cc1c(N2CCCCCC2)nc(C2CC2)nc1N1CCC1` [Compound 184, 1-(6-azetidin-1-yl-2-cyclopropyl-5-methylpyrimidin-4-yl)azepane], the “Dual high affinities: PDE IV part” value with PDE IV is “high affinities”. In addition, the “Dual high affinities: m3 receptor part” value in assay [1] is listed as “high affinities”.

For the molecule `Cc1c(N2CCCCCC2)nc(C2CC2)nc1N1CC(C)C1` [Compound 185, 1-[2-cyclopropyl-5-methyl-6-(3-methylazetidin-1-yl)pyrimidin-4-yl]azepane], the “Dual high affinities: PDE IV part” value in the assay with PDE IV was “high affinities”. Further, in assay [1], the “Dual high affinities: m3 receptor part” value is listed as “high affinities”.

As to `Cc1c(N2CCCCCC2)nc(C2CC2)nc1N1CC(O)C1` [Compound 189, 1-(6-azepan-1-yl-2-cyclopropyl-5-methylpyrimidin-4-yl)azetidin-3-ol], the “Dual high affinities: PDE IV part” value in the assay on PDE IV is given as “high affinities”. Besides, the “Dual high affinities: m3 receptor part” value in assay [1] is reported as “high affinities”.

Turning to `CC1CN(c2cc(N3CCCCCC3)nc(C3CC3)n2)C1` [Compound 191, 1-[2-cyclopropyl-6-(3-methylazetidin-1-yl)pyrimidin-4-yl]azepane], the “Dual high affinities: PDE IV part” value with PDE IV is recorded as “high affinities”. Moreover, the “Dual high affinities: m3 receptor part” value in assay [1] is on record as “high affinities”.

As to `c1c(N2CCCCCC2)nc(C2CC2)nc1N1CCC1` [Compound 192, 1-(6-azetidin-1-yl-2-cyclopropylpyrimidin-4-yl)azepane], the “Dual high affinities: PDE IV part” value in the assay on PDE IV is reported as “high affinities”. The “Dual high affinities: m3 receptor part” value in assay [1] is given as “high affinities”.

For `Cc1c(N2CCCCCC2)nc(C2CC2)nc1N1CC(F)C1` [Compound 194, 1-[2-cyclopropyl-6-(3-fluoroazetidin-1-yl)-5-methylpyrimidin-4-yl]azepane], the “Dual high affinities: PDE IV part” value in the assay with PDE IV was “high affinities”. In addition, in assay [1], the “Dual high affinities: m3 receptor part” value is “high affinities”.
